Laboratory results reported in patent US7455984B2, “Immunoreactive and immunotherapeutic molecules” (The Walter and Eliza Hall Institute of Medical Research, priority 1995, dated 2008).

Test system: Peripheral blood mononuclear cells from IDDM at-risk and HLA-DR matched control subjects
Assay: T-cell proliferation assay ([3H]thymidine incorporation, delta score), ten HLA-DR matched pairs
Assay type: cell-based, human
Details: for Reactivity (T-cell proliferation) by subject group: IDDM at-risk and control subjects, ten pairs; for Delta Score, Mean: mean of 10 subjects; for T-cell proliferative response, IDDM at-risk versus control subjects: highest concentration of peptide, Wilcoxon one-tailed paired analysis (proinsulin p<0.008; GAD p<0.018)

| Sequence | Reactivity (T-cell proliferation) by subject group | Delta Score, Mean (Proinsulin 0.4 μg/ml, At Risk, Wilcoxon one-tailed P 0.054 vs Control) [cpm] | Delta Score (Proinsulin 0.4 μg/ml, Control subject of each pair) [cpm] | Delta Score, Mean (Proinsulin 0.4 μg/ml, Control) [cpm] | Delta Score, Mean (Proinsulin 2 μg/ml, At Risk, Wilcoxon one-tailed P 0.125 vs Control) [cpm] | Delta Score, Mean (Proinsulin 2 μg/ml, Control) [cpm] | Delta Score, Mean (Proinsulin 10 μg/ml, At Risk, Wilcoxon one-tailed P 0.008 vs Control) [cpm] | Delta Score, Mean (Proinsulin 10 μg/ml, Control) [cpm] | T-cell proliferative response, IDDM at-risk versus control subjects | Delta Score, Mean (GAD 0.4 μg/ml, At Risk, Wilcoxon one-tailed P 0.199 vs Control) [cpm] | Delta Score, Mean (GAD 0.4 μg/ml, Control) [cpm] | Delta Score, Mean (GAD 2 μg/ml, At Risk, Wilcoxon one-tailed P 0.199 vs Control) [cpm] | Delta Score, Mean (GAD 2 μg/ml, Control) [cpm] | Delta Score, Mean (GAD 10 μg/ml, At Risk, Wilcoxon one-tailed P 0.018 vs Control) [cpm] | Delta Score, Mean (GAD 10 μg/ml, Control) [cpm] |
| --- | --- | --- | --- | --- | --- | --- | --- | --- | --- | --- | --- | --- | --- | --- | --- |
| CRFDPQFALTNIAVRK [unrelated control peptide, irrelevant control peptide (Macromolecular Resources, Fort Collins, Colo.), reference compound] | no subject reacted |  |  |  |  |  |  |  |  |  |  |  |  |  |  |
| FFYTPKTRREAED [Proinsulin, synthetic 13-mer peptide of human proinsulin, amino acid residues 24-36] | confined almost entirely to IDDM at-risk subjects | 136.0 | 0 | 0 | 251.1 | 45.8 | 558.7 | 27.6 | greater among IDDM at-risk than control subjects |  |  |  |  |  |  |
| FWYIPPSLRTLED [GAD, synthetic 13-mer peptide of human GAD 65, amino acid residues 506-518] | some controls also responded |  |  |  |  |  |  |  | greater among IDDM at-risk than control subjects | 135.3 | 34.1 | 133.0 | 178.2 | 1042.4 | 318.1 |
